Our source for the IC50 values is patent US10363257B2 (ZENITH EPIGENETICS LTD., priority 2013, dated 2019).

The test system of one experiment is c-myc. In words: Inhibition of c-myc expression (mRNA, real-time PCR) in MV4-11 cells. It is filed as cell-based. Conditions: Human AML MV4-11 cells, 3 h, cMYC mRNA. The gist of the method:
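One-step TaqMan qPCR of cMYC, normalized to an internal control with Cyclophilin probes run, gave fold expression versus DMSO (0.1%) control. Samples: triplicate MV4-11 wells exposed 3 h at 37° C to rising compound concentrations in IMDM with 10% FBS.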
(In general: Real-time PCR tracks product formation cycle by cycle.)

In the next experiment the test system is hIL-6 mRNA. The experiment is described as follows: Inhibition of hIL-6 mRNA transcription in LPS-stimulated U937 cells. Conditions: Homo sapiens, U-937; PMA-differentiated U937 cells, 1 h pretreatment, 1 ug/mL LPS stimulation, 3 h; read-out: IL-6 activity (Inhibition of hIL-6 mRNA Transcription). Format: cell-based. The essentials: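 U937 cells differentiated 3 days with 60 ng/mL PMA, pretreated 1 h with compound (0.1% DMSO), then stimulated with 1 ug/mL E. coli LPS for 3 h at 37 °C. hIL-6 mRNA measured by one-step TaqMan RT-qPCR, normalized to cyclophilin. Fold expression relative to control; triplicate wells.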

Experiment [1] addresses T1, Brd4 bromodomain 1 (BRD4(1)) (Homo sapiens, UniProt O60885).
T1 construct: made in house; host or cells: E. coli BL21(DE3)
The experiment is described as follows: Inhibition of tetra-acetylated histone H4 binding to Brd4 bromodomain 1 (TR-FRET). The settings on record: tetra-acetylated histone H4 peptide, first bromodomain of Brd4. The essentials: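 Serially diluted compound (0.2% DMSO) incubated 2 h at room temperature with 200 nM N-His BRD4 bromodomain 1 and 25-50 nM biotinylated tetra-acetyl H4 peptide, detected via Eu-streptavidin/XL665 anti-His. Loss of 665 nm relative to 620 nm signal gave IC50 from dose-response.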
In general terms: TR-FRET usually uses a lanthanide donor and a delayed reading to cut background.

In a further experiment the test system is human AML MV-4-11 cells. In words: Inhibition of cell proliferation in MV4-11 cells (CellTiter Aqueous One). Format: cell-based. Conditions: MV4-11, 72 h. The essentials: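 IC50 values come from blank-corrected proliferation relative to DMSO controls, read as 490 nm absorbance 3–4 h after CellTiter Aqueous One addition. Before that, cells seeded at 5×10^4/well were exposed for 72 h (37° C, 5% CO2) to triplicate two-fold compound dilutions spanning 30–0.2 μM.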

With `Cc1cnn(C)c1-c1cc([N+](=O)[O-])c2nc(C)n(Cc3ccccc3)c2c1` [compound 81, 1-benzyl-6-(1,4-dimethyl-1H-pyrazol-5-yl)-2-methyl-4-nitro-1H-benzo[d]imidazole], the IC50 was 3000 to 30000 nM with c-myc, 300 to 3000 nM with hIL-6 mRNA, 300 to 3000 nM in experiment [1] and 3000 to 30000 nM in the experiment on human AML MV-4-11 cells.

On to `Cc1cnn(C)c1-c1cc(N)c2nc(C)n(Cc3ccccc3)c2c1` [compound 82, 1-benzyl-6-(1,4-dimethyl-1H-pyrazol-5-yl)-2-methyl-1H-benzo[d]imidazol-4-amine], for which the IC50 in the experiment with c-myc fell in the range of 300 to 3000 nM; in the experiment with hIL-6 mRNA it was 300 to 3000 nM; in experiment [1] it was 300 to 3000 nM; in the experiment with human AML MV-4-11 cells, 3000 to 30000 nM.

In the case of `Cc1noc(C)c1-c1cnc2nc(C)n(Cc3ccc(Cl)cc3)c2c1` [compound 83, 4-(1-(4-chlorobenzyl)-2-methyl-1H-imidazo[4,5-b]pyridin-6-yl)-3,5-dimethylisoxazole], the IC50 in the experiment with c-myc was 300 to 3000 nM; in the experiment with hIL-6 mRNA, 300 to 3000 nM; in experiment [1], at most 300 nM; with human AML MV-4-11 cells it was 300 to 3000 nM.

For the compound `Cc1noc(C)c1-c1cnc2nc(C)n(Cc3ccc(O)cc3)c2c1` [compound 84, 4-((6-(3,5-dimethylisoxazol-4-yl)-2-methyl-1H-imidazo[4,5-b]pyridin-1-yl)methyl)phenol], the IC50 in the experiment with c-myc was 300 to 3000 nM; in the experiment on hIL-6 mRNA it was 300 to 3000 nM; in experiment [1], at most 300 nM; in the experiment on human AML MV-4-11 cells, 300 to 3000 nM.

Turning to `Cc1noc(C)c1-c1cc(C#N)c2[nH]c(=O)n(Cc3ccccc3)c2c1` [compound 86, 1-benzyl-6-(3,5-dimethylisoxazol-4-yl)-2-oxo-2,3-dihydro-1H-benzo[d]imidazole-4-carbonitrile], the IC50 was 300 to 3000 nM with c-myc, 300 to 3000 nM with hIL-6 mRNA, at most 300 nM in experiment [1] and 3000 to 30000 nM with human AML MV-4-11 cells.

Turning to `Cc1noc(C)c1-c1cc(N)c2nc(N3CCOCC3)n(Cc3ccccc3)c2c1` [compound 87, 1-benzyl-6-(3,5-dimethylisoxazol-4-yl)-2-morpholino-1H-benzo[d]imidazol-4-amine], the IC50 (with c-myc; in the experiment with hIL-6 mRNA; in experiment [1]; in the experiment on human AML MV-4-11 cells) was at most 300 nM in each case.

Consider `Cc1noc(C)c1-c1cnc2c(C#N)cn(Cc3ccccc3)c2c1` [compound 88, 1-benzyl-6-(3,5-dimethylisoxazol-4-yl)-1H-pyrrolo[3,2-b]pyridine-3-carbonitrile], for which the IC50 in the experiment on c-myc was 300 to 3000 nM; in the experiment on hIL-6 mRNA, at most 300 nM; in experiment [1], at most 300 nM; in the experiment with human AML MV-4-11 cells, 300 to 3000 nM.

With `Cc1noc(C)c1-c1cnc2c(Cl)cn(Cc3ccccc3)c2c1` [compound 89, 4-(1-benzyl-3-chloro-1H-pyrrolo[3,2-b]pyridin-6-yl)-3,5-dimethylisoxazole], the IC50 in the experiment with c-myc was 300 to 3000 nM; in the experiment on hIL-6 mRNA, 300 to 3000 nM; in experiment [1], at most 300 nM; in the experiment with human AML MV-4-11 cells, 300 to 3000 nM.

In the case of `Cc1noc(C)c1-c1cc([N+](=O)[O-])c2[nH]c(=O)n(Cc3ccc(Cl)cc3)c2c1` [compound 91, 1-(4-chlorobenzyl)-6-(3,5-dimethylisoxazol-4-yl)-4-nitro-1H-benzo[d]imidazol-2(3H)-one], the IC50 in the experiment with c-myc is 300 to 3000 nM; with hIL-6 mRNA, 300 to 3000 nM; in experiment [1], at most 300 nM; in the experiment with human AML MV-4-11 cells, 3000 to 30000 nM.

As for `Cc1noc(C)c1-c1cnc2cnn(Cc3ccccc3)c2c1` [compound 92, 4-(1-benzyl-1H-pyrazolo[4,3-b]pyridin-6-yl)-3,5-dimethylisoxazole], the IC50 in the experiment with c-myc was 300 to 3000 nM; in the experiment with hIL-6 mRNA, 300 to 3000 nM; in experiment [1] it was at most 300 nM; in the experiment on human AML MV-4-11 cells, 300 to 3000 nM.

With `Cc1noc(C)c1-c1cnc2cnn(Cc3ccc(Cl)cc3)c2c1` [compound 93, 4-(1-(4-chlorobenzyl)-1H-pyrazolo[4,3-b]pyridin-6-yl)-3,5-dimethylisoxazole], the IC50 with c-myc is 3000 to 30000 nM; in the experiment on hIL-6 mRNA, 300 to 3000 nM; in experiment [1], at most 300 nM; in the experiment on human AML MV-4-11 cells it was 3000 to 30000 nM.

For the compound `Cc1nc2c(N)cc(-c3ccnn3C)cc2n1Cc1ccccc1` [compound 94, 1-benzyl-2-methyl-6-(1-methyl-1H-pyrazol-5-yl)-1H-benzo[d]imidazol-4-amine], the IC50 in the experiment on c-myc was 300 to 3000 nM; with hIL-6 mRNA, 300 to 3000 nM; in experiment [1], at most 300 nM; with human AML MV-4-11 cells it was 300 to 3000 nM.

`Cc1noc(C)c1-c1cnc2nc(C)n(Cc3ccc(Cl)c(Cl)c3)c2c1` [compound 95, 4-(1-(3,4-dichlorobenzyl)-2-methyl-1H-imidazo[4,5-b]pyridin-6-yl)-3,5-dimethylisoxazole]: the IC50 in the experiment with c-myc was 300 to 3000 nM; in the experiment with hIL-6 mRNA, 300 to 3000 nM; in experiment [1] it was at most 300 nM; with human AML MV-4-11 cells, 300 to 3000 nM.

In the case of `Cc1noc(C)c1-c1cc(N)c2nc(C)n(C(C)c3ccccc3)c2c1` (stereo not drawn) [compound 96, 6-(3,5-dimethylisoxazol-4-yl)-2-methyl-1-(1-phenylethyl)-1H-benzo[d]imidazol-4-amine], the IC50 (in the experiment on c-myc; with hIL-6 mRNA; in experiment [1]; in the experiment with human AML MV-4-11 cells) was at most 300 nM each time.

Take `Cc1noc(C)c1-c1cc(N)c2nc(N3CCC3)n(Cc3ccccc3)c2c1` [compound 97, 2-(azetidin-1-yl)-1-benzyl-6-(3,5-dimethylisoxazol-4-yl)-1H-benzo[d]imidazol-4-amine]: the IC50 (in the experiment on c-myc; in the experiment with hIL-6 mRNA; in experiment [1]; with human AML MV-4-11 cells) was at most 300 nM in each case.

`Cc1noc(C)c1-c1cnc2cnn(Cc3ccsc3)c2c1` [compound 98, 3,5-dimethyl-4-(1-(thiophen-3-ylmethyl)-1H-pyrazolo[4,3-b]pyridin-6-yl)isoxazole]: the IC50 (with c-myc; in the experiment with hIL-6 mRNA; in experiment [1]; with human AML MV-4-11 cells) was 300 to 3000 nM each time.

For `CC(=O)Nc1cn(Cc2ccccc2)c2cc(-c3c(C)noc3C)cnc12` [compound 99, N-(1-benzyl-6-(3,5-dimethylisoxazol-4-yl)-1H-pyrrolo[3,2-b]pyridin-3-yl)acetamide], the IC50 with c-myc is 300 to 3000 nM; in the experiment with hIL-6 mRNA it was 300 to 3000 nM; in experiment [1] it was at most 300 nM; in the experiment on human AML MV-4-11 cells, 300 to 3000 nM.

`Cc1noc(C)c1-c1cnc2c(N)cn(Cc3ccccc3)c2c1` [compound 100, 1-benzyl-6-(3,5-dimethylisoxazol-4-yl)-1H-pyrrolo[3,2-b]pyridin-3-amine]: the IC50 in the experiment with c-myc is 300 to 3000 nM; with hIL-6 mRNA, 300 to 3000 nM; in experiment [1], at most 300 nM; in the experiment with human AML MV-4-11 cells, 300 to 3000 nM.

For `Cc1noc(C)c1-c1cc(N)c2cnn(Cc3ccc(Cl)cc3)c2c1` [compound 102, 1-(4-chlorobenzyl)-6-(3,5-dimethylisoxazol-4-yl)-1H-indazol-4-amine], the IC50 in the experiment with c-myc is at most 300 nM; in the experiment with hIL-6 mRNA, at most 300 nM; in experiment [1], at most 300 nM; in the experiment with human AML MV-4-11 cells it was 300 to 3000 nM.

`COc1ccc(Cn2c(=O)[nH]c3c([N+](=O)[O-])cc(-c4c(C)noc4C)cc32)cc1` [compound 103, 6-(3,5-dimethylisoxazol-4-yl)-1-(4-methoxybenzyl)-4-nitro-1H-benzo[d]imidazol-2(3H)-one]: the IC50 in the experiment on c-myc is 300 to 3000 nM; in the experiment on hIL-6 mRNA it was 300 to 3000 nM; in experiment [1], at most 300 nM; with human AML MV-4-11 cells, 300 to 3000 nM.

`Cc1noc(C)c1-c1cnc2nc(C)n(C(C)c3ccccc3)c2c1` (stereo not drawn) [compound 108, 3,5-dimethyl-4-(2-methyl-1-(1-phenylethyl)-1H-imidazo[4,5-b]pyridin-6-yl)isoxazole]: the IC50 in the experiment with c-myc is 300 to 3000 nM; in the experiment with hIL-6 mRNA, at most 300 nM; in experiment [1], at most 300 nM; in the experiment with human AML MV-4-11 cells it was 300 to 3000 nM.

With `Cc1noc(C)c1-c1cc(N)c2nc(NC3CCOCC3)n(Cc3ccccc3)c2c1` [compound 109, 1-benzyl-6-(3,5-dimethylisoxazol-4-yl)-N2-(tetrahydro-2H-pyran-4-yl)-1H-benzo[d]imidazole-2,4-diamine], the IC50 (in the experiment with c-myc; in the experiment with hIL-6 mRNA; in experiment [1]; with human AML MV-4-11 cells) was at most 300 nM each time.

For `CC(=O)Nc1cc(-c2c(C)noc2C)cc2c1[nH]c(=O)n2Cc1ccccc1` [compound 111, N-(1-benzyl-6-(3,5-dimethylisoxazol-4-yl)-2-oxo-2,3-dihydro-1H-benzo[d]imidazol-4-yl)acetamide], the IC50 (with c-myc; in the experiment with hIL-6 mRNA; in experiment [1]; in the experiment on human AML MV-4-11 cells) was at most 300 nM each time.

For the compound `CCNc1nc2ncc(-c3c(C)noc3C)cc2n1C(C)c1ccccc1` (stereo not drawn) [compound 113, 6-(3,5-dimethylisoxazol-4-yl)-N-ethyl-1-(1-phenylethyl)-1H-imidazo[4,5-b]pyridin-2-amine], the IC50 (in the experiment with c-myc; with hIL-6 mRNA; in experiment [1]; in the experiment with human AML MV-4-11 cells) was at most 300 nM throughout.
